Results taken from US7060677B1, “Antimicrobial activity of the first cationic cluster of human lactoferrin” (priority 1999, dated 2006).
Peptide text beside a SMILES is read from it.

Experiments:
[1] = Pharmacology of 99mTc-labeled hLF and peptides by scintigraphy in infected mice
Procedure: Lactoferrins and related peptides were labeled with ^99mTechnetium (^99mTc) as described (22, 23). Briefly, 10 μl of a peptide solution (1 mg/ml of HAc) was added to 2 μl of an aseptic solution of 0.5 mg of stannous pyrophosphate/ml (Dept. of Clinical Pharmacy and Toxicology. Leiden University Medical Center (LUMC). Leiden. The Netherlands). Immediately thereafter, 4 μl of a solution of 10 mg of KBH4 (crystalline. Sigma) per ml of 0.1 M NaOH was added. After addition of 0.1 ml of ^99mTc-sodium pertechnetate solution (200 MBq/ml. Mallinckrodt Medical BV, Petten, The Netherlands), the mixture was gently stirred at ambient temperature for 30 min and then was ready for use. Quality control of the labeling was performed by RP-HPLC analysis using a Sep-Pak C18 cartridge (Waters, Milford, Mass.) in 20 ml of 0.01 M HAc. After rinsing with 20 ml of 0.01 M HAc, proteins and peptides were eluted with 2 ml of methanol (Sigma).
The mice were placed in supine position on a planar gamma camera (Toshiba GCA 7100/UI. Tokyo, Japan) with both hind legs spread out and fixed with surgical tape. Continuous whole body acquisitions of the mice of each 60 s during the first hour after injection of the tracer were made with the gamma camera, equipped with a low-energy general purpose parallel-hole collimator. […] The energy peak was set at 140 keV with a window of 20%.
(§1) On the scintigrams, anatomically adjusted regions of interest (ROI) were drawn over the various organs and both thighs providing data about clearance of ^99mTc-peptides and accumulation at the site of infection. […] The amount of radioactivity in the heart was corrected for decay and expressed as a percentage of injected dose (% ID).

bacterial infection = test: Imaging microbial infections with 99mTc-labeled hLF and peptides; settings: as described in Example VI
Description: The mice were placed in supine position on a planar gamma camera (Toshiba GCA 7100/UI. Tokyo, Japan) with both hind legs spread out and fixed with surgical tape. Continuous whole body acquisitions of the mice of each 60 s during the first hour after injection of the tracer were made with the gamma camera, equipped with a low-energy general purpose parallel-hole collimator. The camera was connected to a computer (GMS 5500 UI, Toshiba) and high-resolution images of the animals were stored as a 256×256 matrix. The energy peak was set at 140 keV with a window of 20%.
as §1

[2] = system: the various bacteria (L. monocytogenes, antibiotic resistant S. aureus, K. pneumoniae, E. coli); test: Assay for antibacterial activity, statements on the various bacteria together; type: cell-based; settings: FIGS. 2A–2D: 7 μM peptide, 1 h at 37° C., NaPB-TSB
Procedure: Listeria monocytogenes strain EGD. Klebsiella pneumoniae (43816), and Escherichia coli O54 were purchased from the American Type Culture Collection (Rockville, Md.). Antibiotic resistant S. aureus, K. pneumoniae and E. coli were cultured overnight in nutrient broth (Oxoid, Basingstoke, UK) at 37° C., diluted in tryptase soya broth (TSB, Oxoid) and cultured for an additional 2 h in a shaking waterbath at 37° C. L. monocytogenes was cultured overnight in brain heart infusion broth (BHI, Oxoid) at 37° C. diluted and cultured for an additional 2 h in a shaking waterbath at 37° C.
In short, bacteria were washed with phosphate-buffered saline (PBS) (pH 7.4) and diluted to a concentration of approximately 2×10^6 CFU/ml of phosphate-buffered saline (pH 6.0) supplemented with 0.1% (v/v) Tween-20 (hereafter designated as PBS-Tw). […] At various time intervals (range 0–4 h) after incubation at 37° C. the number of viable bacteria was determined microbiologically. As negative controls, bovine serum albumin (BSA; Sigma) or no peptide were included.

What does the source list for CC(C)[C@H](NC(=O)[C@H](CO)NC(=O)[C@H](CCCNC(=N)N)NC(=O)[C@H](CCCNC(=N)N)NC(=O)[C@H](CCCNC(=N)N)NC(=O)[C@H](CCCNC(=N)N)NC(=O)CN)C(=O)N[C@@H](CCC(N)=O)C(=O)N[C@@H](Cc1c[nH]c2ccccc12)C(=O)N[C@@H](CS)C(=O)N[C@@H](C)C(=O)O [hLF(1–11)] (H-GRRRRSVQWCA-OH; N-terminus and C-terminus assumed)?
mean t1/2 of removal from the circulation ([1]; 99mTc-labeled, S. aureus infected mice, n=3, radioactivity over the heart in first hour): ~9 min; Accumulation at the site of infection (in words) (bacterial infection): rapidly accumulate at the site of infection

For CC(C)[C@H](NC(=O)[C@H](CO)NC(=O)[C@H](CCCNC(=N)N)NC(=O)[C@H](CCCNC(=N)N)NC(=O)[C@H](CCCNC(=N)N)NC(=O)[C@@H](N)CCCNC(=N)N)C(=O)N[C@@H](CCC(N)=O)C(=O)N[C@@H](Cc1c[nH]c2ccccc12)C(=O)N[C@@H](CS)C(=O)N[C@@H](C)C(=O)O [hLF(2–11)] (H-RRRRSVQWCA-OH; N-terminus and C-terminus assumed), which “Accumulation at the site of infection (in words)” value (bacterial infection) is on record?
Its value is “rapidly accumulate at the site of infection”.

Which “Accumulation at the site of infection (in words)” value (bacterial infection) does the source give for CC(C)[C@H](NC(=O)[C@H](CO)NC(=O)[C@H](CCCNC(=N)N)NC(=O)[C@H](CCCNC(=N)N)NC(=O)[C@@H](N)CCCNC(=N)N)C(=O)N[C@@H](CCC(N)=O)C(=O)N[C@@H](Cc1c[nH]c2ccccc12)C(=O)N[C@@H](CS)C(=O)N[C@@H](C)C(=O)O [hLF(3–11)] (H-RRRSVQWCA-OH; N-terminus and C-terminus assumed) here?
The value was “rapidly accumulate at the site of infection”.

For CC(C)[C@H](NC(=O)[C@H](CO)NC(=O)[C@H](CCCNC(=N)N)NC(=O)[C@@H](N)CCCNC(=N)N)C(=O)N[C@@H](CCC(N)=O)C(=O)N[C@@H](Cc1c[nH]c2ccccc12)C(=O)N[C@@H](CS)C(=O)N[C@@H](C)C(=O)O [hLF(4–11)] (H-RRSVQWCA-OH; N-terminus and C-terminus assumed), which “mean t1/2 of removal from the circulation” value ([1]; Swiss, mouse, in vivo) is on record?
Its value is “approximately 1 min”.

Which “mean t1/2 of removal from the circulation” value ([1]; Swiss, mouse, in vivo) does the source give for CSCC[C@H](NC(=O)[C@H](CC(N)=O)NC(=O)[C@H](CCCNC(=N)N)NC(=O)[C@H](CCC(N)=O)NC(=O)[C@H](Cc1c[nH]c2ccccc12)NC(=O)[C@H](CCC(N)=O)NC(=O)[C@@H](N)Cc1ccccc1)C(=O)N[C@@H](CCCNC(=N)N)C(=O)N[C@@H](CCCCN)C(=O)N[C@H](C(=O)N[C@@H](CCCNC(=N)N)C(=O)O)C(C)C [hLF(21–31), reference compound] (H-FQWQRNMRKVR-OH; N-terminus and C-terminus assumed) here?
Its value is ~2 min.

With “hLF(5–11): synthetic fragment of hLF(1–11): residues 5–11 of hLF (SVQWCAV; UniProt P02788 24-30, looked up, fragment)” as the compound, how does the “Bactericidal activity of synthetic peptides against the various bacteria (in words)” value [2] read?
Its value is “ineffective”.

Which “Bactericidal activity of synthetic peptides against the various bacteria (in words)” value [2] does the source give for “hLF(6–11): synthetic fragment of hLF(1–11): residues 6–11 of hLF (VQWCAV; UniProt P02788 25-30, looked up, fragment)” here?
Its value is “ineffective”.
